# Test results reported in US20060094059A1, “Methods for identifying new drug leads and new therapeutic uses for known drugs” (Odyssey Thera, Inc., priority 2004, published 2006).
# Counter-ions that a name gives are not always drawn. Like-named read-outs stand apart in the source and are kept apart here.
# Assays:
# [1] = system: non-small cell lung carcinoma (A549) cells; test: MTT proliferation assay, NSCLC; assay type: cell-based, Human; conditions: Homo sapiens, Tumor Cell NSCLC (A549), 120 hours, read-out: Anti-proliferative IC-50
# Protocol: (§1) Cells were maintained in various media as follows: A549, LoVo and PC-3 (Ham's F12K medium with 2 mM L-glutamine and 1.5 g/L sodium bicarbonate), MIA PaCa-2 (Dulbecco's modified Eagle's medium with 4 mM L-glutamine and 4.5 g/L glucose), U87-MG (MEM+Earle's BSS). Medium for each cell line was supplemented with 10% FBS and […] Penecillin/Streptomycin. All cells were grown in incubators set at 37° C., 5% CO2. Thiazolyl Blue Tetrazolium Bromide (MTT) based proliferation assays were performed to assess the anti-proliferative activities of the compounds on these cells. Cells were seeded in 96 well plates at a density of 750 cells/well 24 hours prior to compound treatment. The cells were incubated with varying concentrations of compounds for 120 hours. […] Drug treatment was performed in 5 replicate wells. Background absorbance was established by wells containing medium but no cells. Vehicle (DMSO) only was used as control. MTT (Sigma-Aldrich, St. Louis, Mo.) was added to each well at a final concentration of 0.5 mg/ml. Following a 2 hour incubation at 37° C., medium in the wells was replaced with 0.15 ml DMSO. The plates were agitated for 15 min using a microtiter plate shaker.
# [2] = system: colon adenocarcinoma (LoVo) cells; test: MTT proliferation assay, colon; assay type: cell-based, Human; conditions: Homo sapiens, Tumor Cell Colon (LoVo), 120 hours, read-out: Anti-proliferative IC-50
# Protocol: as §1
# [3] = system: pancreatic carcinoma (MIA PaCa-2) cells; test: MTT proliferation assay, pancreatic; assay type: cell-based, Human; conditions: Homo sapiens, Tumor Cell Pancreatic (MIA PaCa-2), 120 hours, read-out: Anti-proliferative IC-50
# Protocol: as §1
# [4] = system: prostate adenocarcinoma (PC-3) cells; test: MTT proliferation assay, prostate; assay type: cell-based, Human; conditions: for IC50: Homo sapiens, Tumor Cell Prostate (PC-3), MTT, 120 hours, read-out: Anti-proliferative IC-50
# Protocol: (§2) We used these methods to mine the known pharmacopeia for drugs with previously-unsuspected activity against cancer-related pathways. […] Hits from our cell-based screens were tested for antiproliferative activity in up to 5 different human tumor cell lines, as follows. First, drugs with significant activity in the cellular screen(s) were tested for their ability to block proliferation of a human tumor cell line (PC-3) at an initial concentration of 10 micromolar. For drugs with antiproliferative activity in PC-3 cells, dose-response curves to determine the IC50 for antiproliferative activity and additional tumor cell lines were tested to determine the breadth of activity. Methods for assessing the antiproliferative activity of the cell-based drug ‘hits’ are described below.
# as §1
# [5] = system: CDC42:PAK4 complexes; test: Protein-fragment complementation assay CDC42:PAK4; assay type: cell-based, human; conditions: for level of CDC42:PAK4 complexes (intensity of the fluorescence): FIG. 3F, compared with the vehicle alone
# Source text: (§3) To construct dynamic assays for protein-protein complexes, we used a protein-fragment complementation assay strategy (PCAs) in intact human cells. (A variety of other suitable assays, and reporter options, are described in detail below.) The principle of PCA is that complementary polypeptide fragments (F[1] and F[2]) of a reporter protein or enzyme will fold into an active form only if fused to two proteins which interact and bring the complementary fragments of the reporter protein into proximity. Reconstitution of the fragments of the reporter protein generates a fluorescent signal that can be quantified in intact cells, and the amount of the signal is proportional to the amount of the protein-protein complex used in constructing the assay. Given a suitable reporter type, the subcellular location of the complex can also be measured.
# (§4) Reporter fragments for PCA were generated by oligonucleotide synthesis (Blue Heron Biotechnology, Bothell, Wash.), starting with the sequence of yellow fluorescent protein (YFP). First, oligonucleotides coding for polypeptide fragments YFP[1]and YFP[2] […] Next, PCR mutagenesis was used to generate the mutant fragments IFP[1] and IFP[2]. The IFP[1] fragment corresponds to YFP[1]-(F46L, F64L, M153T) and the IFP[2] fragment corresponds to YFP[2]-(V163A, S175G). […] The YFP[1], YFP[2], IFP[1] and IFP[2] fragments were amplified by PCR to incorporate restriction sites and a linker sequence, described below, in configurations that would allow fusion of a gene of interest to either the 5′- or 3′-end of each reporter fragment. The reporter-linker fragment cassettes were subcloned into a mammalian expression vector (pcDNA3.1Z, Invitrogen) that had been modified to incorporate the replication origin (oriP) of the Epstein Barr virus (EBV). […] Additionally, these vectors still retain the SV40 origin, allowing for episomal expression in cell lines expressing the SV40 large T antigen (e.g. HEK293T, Jurkat or COS).
# (§5) PCA fusion constructs were prepared for a proteins known to participate in cellular pathways that have been described in the scientific literature as being linked to cancer. The selection of protein-protein complexes used, and the rationale for their use, is provided in Table 1 and the gene identifiers for the cDNAs used in assay construction are provided in Table 2. The full coding sequence for each gene of interest was amplified by PCR from a sequence-verified full-length cDNA. Resulting PCR products were column purified (Centricon), digested with appropriate restriction enzymes to allow directional cloning, and fused in-frame to either the 5′ or 3′-end of YFP[1], YFP[2], IFP[1] or IFP[2] through a linker encoding a flexible 10 amino acid peptide (Gly.Gly.Gly.Gly.Ser)2. […] Recombinants in the host strains DH5-alpha (Invitrogen, Carlsbad, Calif.) or XL1 Blue MR (Stratagene, La Jolla, Calif.) were screened by colony PCR, and clones containing inserts of the correct size were subjected to end sequencing to confirm the presence of the gene of interest and in-frame fusion to the appropriate reporter fragment. A subset of fusion constructs were selected for full-insert sequencing by primer walking. DNAs were isolated using Qiagen MaxiPrep kits (Qiagen, Chatsworth, Calif.). PCR was used to assess the integrity of each fusion construct, by combining the appropriate gene-specific primer with a reporter-specific primer to confirm that the correct gene-fusion was present and of the correct size with no internal deletions.
# (§6) HEK293 cells were maintained in MEM alpha medium (Invitrogen) supplemented with 10% FBS (Gemini Bio-Products), 1% penicillin, and 1% streptomycin, and grown in a 37° C. incubator equilibrated to 5% CO2. […] Up to 100 ng of the complementary YFP or IFP-fragment fusion vectors were co-transfected using Fugene 6 (Roche) according to the manufacturer's protocol.
# [6] = system: glioblastoma (U-87 MG) cells; test: MTT proliferation assay, glioblastoma; assay type: cell-based; conditions: Homo sapiens, Tumor Cell Glioblastoma (U-87 MG), 120 hours, read-out: Anti-proliferative IC-50
# Protocol: as §1
# [7] = system: human tumor cell lines; test: MTT proliferation assay and phase contrast images, cell line not given (FIGS. 5-10); assay type: cell-based; conditions: treated cells vs. DMSO control, cell line not named
# Protocol: as §2
# Cells were maintained in various media as follows: A549, LoVo and PC-3 (Ham's F12K medium with 2 mM L-glutamine and 1.5 g/L sodium bicarbonate), MIA PaCa-2 (Dulbecco's modified Eagle's medium with 4 mM L-glutamine and 4.5 g/L glucose), U87-MG (MEM+Earle's BSS). Medium for each cell line was supplemented with 10% FBS and […] Penecillin/Streptomycin. All cells were grown in incubators set at 37° C., 5% CO2. Thiazolyl Blue Tetrazolium Bromide (MTT) based proliferation assays were performed to assess the anti-proliferative activities of the compounds on these cells. Cells were seeded in 96 well plates at a density of 750 cells/well 24 hours prior to compound treatment. The cells were incubated with varying concentrations of compounds for 120 hours. Compound concentrations range from 0.03 to 100 microM (half log increments) except for alpha-Tomatine (0.001-100 microM, half log increments), Neriifolin (0.0002-100 microM) and Peruvoside (0.01-100 microM). Drug treatment was performed in 5 replicate wells. Background absorbance was established by wells containing medium but no cells. Vehicle (DMSO) only was used as control. MTT (Sigma-Aldrich, St. Louis, Mo.) was added to each well at a final concentration of 0.5 mg/ml. Following a 2 hour incubation at 37° C., medium in the wells was replaced with 0.15 ml DMSO. The plates were agitated for 15 min using a microtiter plate shaker. […] Mean absorbance values were calculated from 5 replicate wells of each drug treatment following subtraction of background absorbance from blank samples and plotted as a percentage of control.
# [8] = system: Ras:Raf complexes; test: Protein-fragment complementation assay H-Ras:Raf; assay type: cell-based, human; conditions: for Assay activity: hit in Ras/Raf assay, drugs screened at 10 micromolar; for level of the Ras:Raf complexes (intensity of the fluorescence) / subcellular location of the Ras:Raf complexes: FIG. 3E; for level of the Ras:Raf complexes (intensity of the fluorescence): compared with the vehicle alone; for subcellular location of the Ras:Raf complexes: in control cells complexes localized at the cell membrane
# Source text: as §3, §4, §5, §6
# [9] = system: PAK4:Cofilin; test: Protein-fragment complementation assay PAK4:Cofilin; assay type: cell-based, human; conditions: hit in PAK4/CFL assay; drugs screened at 10 micromolar
# Source text: as §3, §4, §5, §6
# [10] = hit in CDC42/PAK4 assay, drugs screened at 10 micromolar
Structure (SMILES),IC50 [1],IC50 [2],IC50 [3],IC50 [4],IC50 [6],also measured
CCCSc1ccc2nc(NC(=O)OC)[nH]c2c1 [Albendazole],240 nM,140 nM,180 nM,300 nM,–,Assay activity [5]: CDC42/PAK4
CC(C)COCC(CN(Cc1ccccc1)c1ccccc1)N1CCCC1 (stereo not drawn) [Bepridil],–,3680 nM,–,8690 nM,5750 nM,"level of CDC42:PAK4 complexes (intensity of the fluorescence) [5]: decrease in the level; Assay activity [5, 10]: CDC42/PAK4"
C(=C\c1ccccc1)/CN1CCN(C(c2ccccc2)c2ccccc2)CC1 [Cinnarizine],–,–,–,–,–,cell count (phase contrast images) [7]: decreased the cell count
CCN(CC)CCOc1ccc(C(=C(Cl)c2ccccc2)c2ccccc2)cc1 [Clomiphene],–,–,–,–,–,Assay activity [8]: Ras/Raf
CNCCCN1c2ccccc2CCc2ccccc21 [Desipramine],–,10600 nM,–,14600 nM,6900 nM,level of the Ras:Raf complexes (intensity of the fluorescence) [8]: decrease in the level; subcellular location of the Ras:Raf complexes [8]: redistribution of the complexes to an intracellular structure; Assay activity [8]: Ras/Raf
Oc1ccc(Cl)cc1Cc1cc(Cl)ccc1O [Dichlorophene],–,–,–,–,–,Assay activity [8]: Ras/Raf
COC(=O)Nc1nc2ccc(C(=O)c3ccccc3)cc2[nH]1 [Mebendazole],180 nM,70 nM,130 nM,270 nM,–,Assay activity [9]: PAK4/CFL
CN1C[C@H](CNC(=O)OCc2ccccc2)C[C@@H]2c3cccc4c3c(cn4C)C[C@H]21 [Metergoline],5400 nM,6970 nM,3350 nM,6190 nM,4600 nM,"level of CDC42:PAK4 complexes (intensity of the fluorescence) [5]: decrease in the level; Assay activity [5, 10]: CDC42/PAK4; level of the Ras:Raf complexes (intensity of the fluorescence) [8]: decrease in the level; subcellular location of the Ras:Raf complexes [8]: redistribution of the complexes to an intracellular structure"
CN(C)CCCN1c2ccccc2Sc2ccccc21 [Promazine],13900 nM,13900 nM,5130 nM,13900 nM,16400 nM,level of the Ras:Raf complexes (intensity of the fluorescence) [8]: decrease in the level; subcellular location of the Ras:Raf complexes [8]: redistribution of the complexes to an intracellular structure; Assay activity [8]: Ras/Raf
C[n+]1cc2c3c(ccc2c2ccc4cc5c(cc4c21)OCO5)OCO3 [Sanguinarine],780 nM,810 nM,180 nM,330 nM,340 nM,–
CC(C)(C)c1ccc(C(O)CCCN2CCC(C(O)(c3ccccc3)c3ccccc3)CC2)cc1 (stereo not drawn) [Terfenadine],550 nM,990 nM,350 nM,–,380 nM,"level of CDC42:PAK4 complexes (intensity of the fluorescence) [5]: decrease in the level; Assay activity [5, 10]: CDC42/PAK4; cell count (phase contrast images) [7]: reduced the cell count"
C[C@H]1CC[C@]2(NC1)O[C@H]1C[C@H]3[C@@H]4CC[C@H]5C[C@@H](O[C@@H]6O[C@H](CO)[C@H](O[C@@H]7O[C@H](CO)[C@@H](O)[C@H](O[C@@H]8OC[C@@H](O)[C@H](O)[C@H]8O)[C@H]7O[C@@H]7O[C@H](CO)[C@@H](O)[C@H](O)[C@H]7O)[C@H](O)[C@H]6O)CC[C@]5(C)[C@H]4CC[C@]3(C)[C@H]1[C@@H]2C [Tomatine],92 nM,97 nM,131 nM,90 nM,–,"Assay activity [5, 10]: Cdc42/PAK4"
Cc1cccc(Nc2cc(Cl)nc(SCC(=O)O)n2)c1C [WY-14643],–,–,–,–,–,"proliferation of PC-3 cells (MTT assay) ([4]; FIG. 4, compared to the DMSO control): no effect on proliferation"
Clc1ccccc1C(c1ccccc1)(c1ccccc1)n1ccnc1 [clotrimazole],–,–,–,–,–,cell count (phase contrast images) [7]: decreased the cell count
COC(=O)[C@H]1[C@H]2C[C@H]3c4[nH]c5cc(OC)ccc5c4CCN3C[C@H]2C[C@@H](OC(=O)c2cc(OC)c(OC)c(OC)c2)[C@@H]1OC [isoreserpine],–,–,–,–,–,cell count (phase contrast images) [7]: decreased the cell count
CC/C(=C(\c1ccccc1)c1ccc(OCCN(C)C)cc1)c1ccccc1 [tamoxifen citrate],–,–,–,–,–,level of the Ras:Raf complexes (intensity of the fluorescence) [8]: decrease in the level; subcellular location of the Ras:Raf complexes [8]: redistribution of the complexes to an intracellular structure
